Kd data for three molecules are collected here from BindingDB's records for doi:10.1021/jm00126a009 (Northeastern University, 1989).

The nature of assay [1]: Compound was evaluated for the ability to displace [3H]spiperone at Dopamine receptor D2 in porcine anterior pituitary gland as low affinity state.
A short description of assay [2]: Compound was evaluated for the ability to displace [3H]spiperone at Dopamine receptor D2 in porcine anterior pituitary gland as high affinity state.
Assay [3] is described as follows: Compound was evaluated for the ability to displace [3H]spiperone at Dopamine receptor D2 in porcine anterior pituitary gland as low affinity state. This is another data set of the same source.
A short description of assay [4]: Compound was evaluated for the ability to displace [3H]spiperone at dopamine receptor in porcine anterior pituitary gland as high affinity state.

Turning to `CN1CCc2cc(Br)cc3c2[C@H]1Cc1ccc(O)c(O)c1-3`, the Kd (commonly the constant that tells how readily two partners part at equilibrium) in assay [1] was 728 nM; in assay [2], 6.8 nM.
As for `CN1CCc2cc(N)cc3c2[C@H]1Cc1ccc(O)c(O)c1-3`, the Kd stood at 3300 nM in assay [1] and 20 nM in assay [3].
As for `CN1CCc2cc(F)cc3c2[C@H]1Cc1ccc(O)c(O)c1-3` [(R)-2-Fluoro-6-methyl-5,6,6a,7-tetrahydro-4H-dibenzo[de,g]quinoline-10,11-diol], the Kd in assay [4] was determined as 0.43 nM; in assay [2], 94 nM.
